Source: PubChem BioAssay AID1963427 (Molecular Pharmacology Branch, DTP, NCI, 2024)

Tested on: 317291-083-R-J1-PDC complex spheroid growth
Assay: Anticancer human tumor 317291-083-R-J1-PDC patient-derived soft tissue sarcoma cell line growth inhibition [Asc]
Conditions: for IC50: curve of first compound; for viability, T/C: stronger effect = lower value; active = viability on the fitted dose curve at most 10% of control; inactive = the rest
In short: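 Stromal components (HUVEC and hMSC) are co-assembled with the cancer cells into multicellular spheroids. Drugs are then added singly or paired, at concentrations falling by half-log increments from a clinically achievable maximum, capped at 10 microM without known Cmax.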

[1] = second compound 0.0316 µM, first compound 0.0316 µM
[2] = second compound 0.0316 µM, first compound 0.1 µM
[3] = second compound 0.0316 µM, first compound 0.316 µM
[4] = second compound 0.0316 µM, first compound 1 µM
[5] = second compound 0.1 µM, first compound 0.0316 µM
[6] = second compound 0.1 µM, first compound 0.1 µM
[7] = second compound 0.1 µM, first compound 0.316 µM
[8] = second compound 0.1 µM, first compound 1 µM
[9] = second compound 0.316 µM, first compound 0.0316 µM
[10] = second compound 0.316 µM, first compound 0.1 µM
[11] = second compound 0.316 µM, first compound 0.316 µM
[12] = second compound 0.316 µM, first compound 1 µM
[13] = second compound 1 µM, first compound 0.0316 µM
[14] = second compound 1 µM, first compound 0.1 µM
[15] = second compound 1 µM, first compound 0.316 µM
[16] = second compound 1 µM, first compound 1 µM
[17] = second compound 3.16 µM, first compound 0.0316 µM
[18] = second compound 3.16 µM, first compound 0.1 µM
[19] = second compound 3.16 µM, first compound 0.316 µM
[20] = second compound 3.16 µM, first compound 1 µM
[21] = second compound 10 µM, first compound 0.0316 µM
[22] = second compound 10 µM, first compound 0.1 µM
[23] = second compound 10 µM, first compound 0.316 µM
[24] = second compound 10 µM, first compound 1 µM
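Note: compound exposure lasted seven days after spheroids formed for three days.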
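Throughout, for viability, T/C: 100% = DMSO vehicle control wells.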

C#Cc1c(F)ccc2cc(O)cc(-c3ncc4c(N5CC6CCC(C5)N6)nc(OCC56CCCN5CC(F)C6)nc4c3F)c12 (centres undefined) + Cc1c(S(C)(=O)=O)c(-c2cc(F)cc(N3CCN(c4ccc(NS(=O)(=O)c5ccc(NC(CCN6CCC(C(=O)OCCCP(=O)(O)O)CC6)CSc6ccccc6)c(S(=O)(=O)C(F)(F)F)c5)cc4)CC3)c2)c(-c2ccc(Cl)cc2)n1C(C)C
> 10000 nM: IC50 (second compound 0.0316 µM) | IC50 (second compound 0.1 µM) | IC50 (second compound 0.316 µM) | IC50 (second compound 1 µM) | IC50 (second compound 3.16 µM)
9940 nM: IC50 (second compound 10 µM)
inactive: viability, T/C [1] 105% | viability, T/C [2] 89% | viability, T/C [3] 102% | viability, T/C [4] 84.6% | viability, T/C (second compound 0.0316 µM, first compound 3.16 µM) 96.7% | viability, T/C (second compound 0.0316 µM, first compound 10 µM) 68.8% | viability, T/C [5] 86.5% | viability, T/C [6] 101% | viability, T/C [7] 92.1% | viability, T/C [8] 87.7% | viability, T/C (second compound 0.1 µM, first compound 3.16 µM) 96.7% | viability, T/C (second compound 0.1 µM, first compound 10 µM) 70.1% | viability, T/C [9] 93.9% | viability, T/C [10] 87.3% | viability, T/C [11] 80.3% | viability, T/C [12] 78.9% | viability, T/C (second compound 0.316 µM, first compound 3.16 µM) 80.3% | viability, T/C (second compound 0.316 µM, first compound 10 µM) 62.5% | viability, T/C [13] 90.7% | viability, T/C [14] 70.3% | viability, T/C [15] 83.4% | viability, T/C [16] 67.6% | viability, T/C (second compound 1 µM, first compound 3.16 µM) 74.9% | viability, T/C (second compound 1 µM, first compound 10 µM) 58.4% | viability, T/C [17] 75.5% | viability, T/C [18] 67.1% | viability, T/C [19] 68.9% | viability, T/C [20] 71.7% | viability, T/C (second compound 3.16 µM, first compound 3.16 µM) 74.3% | viability, T/C (second compound 3.16 µM, first compound 10 µM) 53.2% | viability, T/C [21] 79.9% | viability, T/C [22] 101% | viability, T/C [23] 89.2% | viability, T/C [24] 76.9% | viability, T/C (second compound 10 µM, first compound 3.16 µM) 80.5% | viability, T/C (second compound 10 µM, first compound 10 µM) 49.1%

CNC(C)C(=O)NC1CN(S(=O)(=O)c2cccc(S(=O)(=O)N3CCC4CCC(C(=O)NC(c5ccccc5)c5ccccc5)N4C(=O)C(NC(=O)C(C)NC)C3)c2)CCC2CCC(C(=O)NC(c3ccccc3)c3ccccc3)N2C1=O (centres undefined) + Cc1c(S(C)(=O)=O)c(-c2cc(F)cc(N3CCN(c4ccc(NS(=O)(=O)c5ccc(NC(CCN6CCC(C(=O)OCCCP(=O)(O)O)CC6)CSc6ccccc6)c(S(=O)(=O)C(F)(F)F)c5)cc4)CC3)c2)c(-c2ccc(Cl)cc2)n1C(C)C
84.1 nM: IC50 (second compound 3.16 µM)
inactive: viability, T/C (second compound 0.0316 µM, first compound 0.00316 µM) 121% | viability, T/C (second compound 0.0316 µM, first compound 0.01 µM) 65.5% | viability, T/C [1] 82.7% | viability, T/C [2] 55.4% | viability, T/C [3] 53.3% | viability, T/C [4] 32.9% | viability, T/C (second compound 0.1 µM, first compound 0.00316 µM) 88.3% | viability, T/C (second compound 0.1 µM, first compound 0.01 µM) 80.2% | viability, T/C [5] 60.4% | viability, T/C [6] 62.2% | viability, T/C [7] 35.1% | viability, T/C [8] 25.1% | viability, T/C (second compound 0.316 µM, first compound 0.00316 µM) 82.7% | viability, T/C (second compound 0.316 µM, first compound 0.01 µM) 67.4% | viability, T/C [9] 74.5% | viability, T/C [10] 60.5% | viability, T/C [11] 38.8% | viability, T/C [12] 23.8% | viability, T/C (second compound 1 µM, first compound 0.00316 µM) 70.7% | viability, T/C (second compound 1 µM, first compound 0.01 µM) 61.4% | viability, T/C [13] 55% | viability, T/C [14] 44.5% | viability, T/C [15] 41.3% | viability, T/C [16] 25.3% | viability, T/C (second compound 3.16 µM, first compound 0.00316 µM) 81% | viability, T/C (second compound 3.16 µM, first compound 0.01 µM) 53.1% | viability, T/C [17] 65.1% | viability, T/C [18] 50.9% | viability, T/C [19] 36.6% | viability, T/C [20] 22.1% | viability, T/C (second compound 10 µM, first compound 0.00316 µM) 77.5% | viability, T/C (second compound 10 µM, first compound 0.01 µM) 78.6% | viability, T/C [21] 67.1% | viability, T/C [22] 60% | viability, T/C [23] 34.9% | viability, T/C [24] 24.8%
176 nM: IC50 (second compound 0.316 µM)
61.4 nM: IC50 (second compound 1 µM)
138 nM: IC50 (second compound 0.1 µM)
149 nM: IC50 (second compound 10 µM)
197 nM: IC50 (second compound 0.0316 µM)
